# Assay results published in patent US11807693B2 (priority 2014, dated 2023).
# Like-named read-outs stand apart in the source and are kept apart here. Starred links: 1 amine or outer side, 2 acyl side, 3 side chain; linkers in the order of their positions; H or OH if unused. Non-standard residues stand in square brackets, D forms with d. Residues, ends and D or L forms follow the SMILES beside them. ξ: configuration not given here. *: point of attachment. dBip = N[C@H](Cc1ccc(-c2ccccc2)cc1)C(=O)O; Oic = O=C(O)[C@@H]1C[C@@H]2CCCC[C@@H]2N1; Phe(4-Cl) = N[C@@H](Cc1ccc(Cl)cc1)C(=O)O; Phe(4-I) = N[C@@H](Cc1ccc(I)cc1)C(=O)O; γGlu = O=C(O)[C@H](CCC(=O)[*:2])N[*:1]; d(β3hF) = N[C@@H](CC(=O)O)Cc1ccccc1; NMeR = CN[C@@H](CCCNC(=N)N)C(=O)O; Palmitoyl = CCCCCCCCCCCCCCCC(=O)*; Tridecanoyl = CCCCCCCCCCCCC(=O)*; hArg = N=C(N)NCCCC[C@H](N)C(=O)O; Cha = N[C@@H](CC1CCCCC1)C(=O)O; NMeL = CN[C@@H](CC(C)C)C(=O)O; αMeL = CC(C)C[C@](C)(N)C(=O)O; αMeP = C[C@@]1(C(=O)O)CCCN1; Pip = O=C(O)[C@@H]1CCCCN1; β3hS = N[C@@H](CO)CC(=O)O; Ac6c = NC1(C(=O)O)CCCCC1; Nle = CCCC[C@H](N)C(=O)O; Orn = NCCC[C@H](N)C(=O)O; ξβ3hV = CC(C)C(N)CC(=O)O; AEEA = NCCOCCOCC(=O)O; Aib = CC(C)(N)C(=O)O
# Columns and labels:
# [1] = In vitro stability in rat plasma; type: in vitro ADME
# How it was run: (§1)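 Incubations: 5 μM apelin peptide, 37° C., 4 hr, in rat plasma, liver or kidney homogenate. Read-out via high resolution LC-MS after MeOH/internal standard precipitation and centrifugation.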
# [2] = In vitro stability in rat liver homogenate; type: in vitro ADME; details: tissue homogenate
# How it was run: as §1
# [3] = In vitro stability in rat kidney homogenate; type: in vitro ADME; details: rat, tissue homogenate
# How it was run: as §1
# rat APJ receptor = biological target: T1, rat APJ receptor (Rattus norvegicus, UniProt Q9JHG3); assay: [35S] GTPγS assay, rat APJ receptor; type: biochemical
# T1 construct: expressed in transfected cells
# T1 sequence (Q9JHG3 1-377): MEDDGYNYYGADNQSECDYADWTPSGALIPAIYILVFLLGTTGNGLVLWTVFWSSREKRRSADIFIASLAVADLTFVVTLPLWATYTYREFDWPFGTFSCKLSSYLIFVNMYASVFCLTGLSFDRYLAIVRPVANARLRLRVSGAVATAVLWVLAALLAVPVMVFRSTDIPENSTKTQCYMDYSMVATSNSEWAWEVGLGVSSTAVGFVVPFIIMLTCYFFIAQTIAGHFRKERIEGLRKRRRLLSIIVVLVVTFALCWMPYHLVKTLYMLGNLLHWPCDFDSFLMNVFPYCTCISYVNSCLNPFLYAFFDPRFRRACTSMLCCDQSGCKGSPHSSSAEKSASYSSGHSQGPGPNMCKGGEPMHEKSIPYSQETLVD
# Experimental: The membranes were incubated with modified peptides in the assay buffer. […] Bound [^35S] GTPγS was separated from free radiolabel by filtration. The filter bound radioactivity was determined by liquid scintillation counting.
# [4] = rat APJ receptor, read-out: EC50 Rat APJ Receptor
# [5] = Table 16, read-out: EC50 Rat APJ Receptor
SMILES,"remaining at 4 h, 5 μM [1] [%]","remaining at 4 h, 5 μM [2] [%]","remaining at 4 h, 5 μM [3] [%]",EC50 (rat APJ receptor; [4]) [nM],EC50 (rat APJ receptor; [5]) [nM]
CCCCCCCCCCCCCCCC(=O)N[C@@H](CCC(=O)NCCOCCOCC(=O)NCCOCCOCC(=O)N[C@H](CCC(N)=O)C(=O)N[C@@H](CCCNC(=N)N)C(=O)N1CCC[C@H]1C(=O)N(C)[C@@H](CCCNC(=N)N)C(=O)N[C@@H](CC1CCCCC1)C(=O)N[C@@H](CO)C(=O)N[C@@H](Cc1c[nH]cn1)C(=O)N[C@@H](CCCCN)C(=O)NCC(=O)N1[C@H](C(=O)N[C@@H](CCCC)C(=O)N2CCC[C@@]2(C)C(=O)N[C@@H](CC(=O)O)Cc2ccccc2)C[C@@H]2CCCC[C@@H]21)C(=O)O [compound 570] ({Palmitoyl-γGlu-AEEA-AEEA}-[dQ]RP[NMeR][Cha]SHKG[Oic][Nle][αMeP][d(β3hF)]-OH),> 90,32,11,19.8,–
CCCCCCCCCCCCC(=O)N[C@@H](CCC(=O)NCCOCCOCC(=O)NCCOCCOCC(=O)N[C@H](CCC(N)=O)C(=O)N[C@@H](CCCNC(=N)N)C(=O)N1CCC[C@H]1C(=O)N(C)[C@@H](CCCNC(=N)N)C(=O)N[C@@H](CC1CCCCC1)C(=O)N[C@@H](CO)CC(=O)N[C@@H](Cc1c[nH]cn1)C(=O)N[C@@H](CCCCN)C(=O)NCC(=O)N1[C@H](C(=O)N[C@@H](CCCC)C(=O)NC(C)(C)C(=O)N[C@@H](Cc2ccc(Cl)cc2)C(=O)O)C[C@@H]2CCCC[C@@H]21)C(=O)O [compound 500] ({Tridecanoyl-γGlu-AEEA-AEEA}-[dQ]RP[NMeR][Cha][β3hS]HKG[Oic][Nle][Aib][Phe(4-Cl)]-OH),> 90,13,< 1,–,3.14
CCCCCCCCCCCCCCCC(=O)N[C@@H](CCC(=O)NCCOCCOCC(=O)NCCOCCOCC(=O)N[C@H](CCC(N)=O)C(=O)N[C@@H](CCCNC(=N)N)C(=O)N1CCC[C@H]1C(=O)N(C)[C@@H](CCCNC(=N)N)C(=O)N[C@@H](CC1CCCCC1)C(=O)N[C@@H](CO)C(=O)N[C@@H](Cc1c[nH]cn1)C(=O)N[C@@H](CCCCN)C(=O)NCC(=O)N1[C@H](C(=O)N[C@@H](CCCC)C(=O)NC2(C(=O)N[C@@H](Cc3ccc(Cl)cc3)C(=O)O)CCCCC2)C[C@@H]2CCCC[C@@H]21)C(=O)O [compound 584] ({Palmitoyl-γGlu-AEEA-AEEA}-[dQ]RP[NMeR][Cha]SHKG[Oic][Nle][Ac6c][Phe(4-Cl)]-OH),62,77,6,52.2,–
CCCC[C@H](NC(=O)[C@@H]1CCCN1C(=O)CNC(=O)[C@H](CCCCN)NC(=O)[C@H](Cc1c[nH]cn1)NC(=O)[C@H](CO)NC(=O)[C@](C)(CC(C)C)NC(=O)[C@H](CCCCNC(=N)N)NC(=O)[C@@H]1CCCN1C(=O)[C@@H](CCCNC(=N)N)NC(=O)[C@H](CCC(N)=O)NC(=O)COCCOCCNC(=O)COCCOCCNC(=O)CC[C@H](NC(=O)CCCCC(=O)O)C(=O)O)C(=O)N1CCC[C@H]1C(=O)N[C@@H](Cc1ccc(Cl)cc1)C(=O)O [compound 515],2,< 1,6,5.94,–
CCCCCCCCCCCCC(=O)N[C@@H](CCC(=O)NCCOCCOCC(=O)NCCOCCOCC(=O)NC(CC(=O)N[C@@H](CCCNC(=N)N)C(=O)N1CCC[C@H]1C(=O)N(C)[C@@H](CCCNC(=N)N)C(=O)NC(CC(=O)N[C@@H](CO)C(=O)N[C@@H](Cc1c[nH]cn1)C(=O)N[C@@H](CCCCN)C(=O)NCC(=O)N1[C@H](C(=O)N[C@@H](CCCC)C(=O)N2CCC[C@H]2C(=O)N[C@@H](Cc2ccc(Cl)cc2)C(=O)O)C[C@@H]2CCCC[C@@H]21)C(C)C)C(C)C)C(=O)O (stereo partly drawn) [compound 394] ({Tridecanoyl-γGlu-AEEA-AEEA}-[ξβ3hV]RP[NMeR][ξβ3hV]SHKG[Oic][Nle]P[Phe(4-Cl)]-OH),86,8,2,1.5,–
CCCCCCCCCCCCC(=O)N[C@@H](CCC(=O)NCCOCCOCC(=O)NCCOCCOCC(=O)N[C@@H](CCCN)C(=O)N[C@@H](Cc1ccccc1)C(=O)N[C@@H](CCCCNC(=N)N)C(=O)N[C@@H](CCCCNC(=N)N)C(=O)N[C@@H](CCC(N)=O)C(=O)N(C)[C@@H](CCCNC(=N)N)C(=O)N1CCC[C@H]1C(=O)N(C)[C@@H](CCCNC(=N)N)C(=O)N[C@@H](CC1CCCCC1)C(=O)N[C@@H](CO)C(=O)N[C@@H](Cc1c[nH]cn1)C(=O)N[C@@H](CCCCN)C(=O)NCC(=O)N1[C@H](C(=O)N[C@@H](CCCC)C(=O)N2CCC[C@H]2C(=O)N[C@@H](Cc2ccc(Cl)cc2)C(=O)O)C[C@@H]2CCCC[C@@H]21)C(=O)O [compound 297] ({Tridecanoyl-γGlu-AEEA-AEEA}-[Orn]F[hArg][hArg]Q[NMeR]P[NMeR][Cha]SHKG[Oic][Nle]P[Phe(4-Cl)]-OH),> 90,40.3,< 1,1.02,–
CCCCCCCCCCCCC(=O)N[C@@H](CCC(=O)NCCOCCOCC(=O)NCCOCCOCC(=O)N[C@@H](CCC(N)=O)C(=O)N[C@@H](CCCNC(=N)N)C(=O)N1CCC[C@H]1C(=O)N[C@@H](CCCCNC(=N)N)C(=O)N[C@@H](CC1CCCCC1)C(=O)N[C@@H](CO)C(=O)N[C@@H](Cc1c[nH]cn1)C(=O)N[C@@H](CCCCN)C(=O)NCC(=O)N1[C@H](C(=O)N[C@@H](CCCC)C(=O)N2CCC[C@H]2C(=O)N[C@@H](Cc2ccc(Cl)cc2)C(=O)O)C[C@@H]2CCCC[C@@H]21)C(=O)O [compound 308] ({Tridecanoyl-γGlu-AEEA-AEEA}-QRP[hArg][Cha]SHKG[Oic][Nle]P[Phe(4-Cl)]-OH),76,6.2,< 1,–,0.18
CCCCCCCCCCCCC(=O)N[C@@H](CCC(=O)NCCOCCOCC(=O)NCCOCCOCC(=O)N[C@@H](CCC(N)=O)C(=O)N(C)[C@@H](CCCNC(=N)N)C(=O)N[C@@](C)(CC(C)C)C(=O)N[C@@H](CO)C(=O)N[C@@H](Cc1c[nH]cn1)C(=O)N[C@@H](CCCCN)C(=O)NCC(=O)N1[C@H](C(=O)N[C@@H](CCCC)C(=O)N2CCC[C@H]2C(=O)N[C@@H](Cc2ccc(Cl)cc2)C(=O)O)C[C@@H]2CCCC[C@@H]21)C(=O)O [compound 397] ({Tridecanoyl-γGlu-AEEA-AEEA}-Q[NMeR][αMeL]SHKG[Oic][Nle]P[Phe(4-Cl)]-OH),87,2,1,–,16.5
CCCCCCCCCCCCC(=O)N[C@@H](CCC(=O)NCCOCCOCC(=O)NCCOCCOCC(=O)N[C@@H](CCCNC(=N)N)C(=O)N[C@@H](CCC(N)=O)C(=O)N[C@@H](CCCC)C(=O)N1CCC[C@H]1C(=O)N[C@@H](CCCCNC(=N)N)C(=O)N[C@@H](CC1CCCCC1)C(=O)N[C@@H](CO)C(=O)N[C@@H](C)C(=O)N[C@@H](CCCCN)C(=O)NCC(=O)N1CCCC[C@H]1C(=O)N[C@@H](CCCC)C(=O)N1CCC[C@H]1C(=O)N[C@@H](Cc1ccc(Cl)cc1)C(=O)O)C(=O)O [compound 564] ({Tridecanoyl-γGlu-AEEA-AEEA}-RQ[Nle]P[hArg][Cha]SAKG[Pip][Nle]P[Phe(4-Cl)]-OH),> 90,2,< 1,–,1.49
CC(=O)N[C@@H](CCCCNC(=N)N)C(=O)N[C@H](CCCNC(=N)N)C(=O)N[C@@H](CCC(N)=O)C(=O)N[C@@H](CCCCNC(=N)N)C(=O)N1CCC[C@H]1C(=O)N[C@@H](CCC(=O)O)C(=O)N(C)[C@@H](CC(C)C)C(=O)N[C@@H](CO)C(=O)N[C@@H](Cc1c[nH]cn1)C(=O)N[C@@H](CCCCN)C(=O)NCC(=O)N1[C@H](C(=O)N[C@@H](Cc2ccc(I)cc2)C(=O)N2CCC[C@H]2C(=O)N[C@H](Cc2ccc(-c3ccccc3)cc2)C(=O)O)C[C@@H]2CCCC[C@@H]21 [compound 79] (Ac-[hArg][dR]Q[hArg]PE[NMeL]SHKG[Oic][Phe(4-I)]P[dBip]-OH),> 90,< 1,1.3,0.341,–
CCCCCCCCCCCCC(=O)N[C@@H](CCC(=O)NCCOCCOCC(=O)NCCOCCOCC(=O)N[C@H](CCC(N)=O)C(=O)N[C@@H](CCCNC(=N)N)C(=O)N1CCC[C@H]1C(=O)N(C)[C@@H](CCCNC(=N)N)C(=O)N[C@@H](CC1CCCCC1)C(=O)N[C@@H](CO)C(=O)N[C@@H](Cc1c[nH]cn1)C(=O)N[C@@H](CCCCN)C(=O)NCC(=O)N1[C@H](C(=O)N[C@@H](CCCC)C(=O)N2CCC[C@H]2C(=O)N[C@@H](Cc2ccc(Cl)cc2)C(=O)O)C[C@@H]2CCCC[C@@H]21)C(=O)O [compound 377] ({Tridecanoyl-γGlu-AEEA-AEEA}-[dQ]RP[NMeR][Cha]SHKG[Oic][Nle]P[Phe(4-Cl)]-OH),65,4,99,–,–
